Key:
hNaV1.1 (SCN1A) = hNaV1.1 (SCN1A) (Homo sapiens, UniProt P35498); experiment: Use-dependent inhibition of the CNS NaV1.1 sodium channel; assay type: cell-based; conditions: % inhibition, 25 Hz; for inhibition at 1 µM: use-dependent block at 1 uM, read-out: Nav1.1 UDB 25 Hz 1 uM; for inhibition at 10 µM: use-dependent block at 10 uM, read-out: Nav1.1 UDB 25 Hz 10 uM
Procedure: HEK-293 cells stably expressing wild-type (WT) hNaV1.1 (SCN1A, NCBI# AB09354) were obtained from Millipore (Cat. # CYL3009) were used to record INa. Cells are maintained with standard tissue culture procedures and stable channel expression is maintained with 400 ug/mL G418 in the culture medium. Unless otherwise noted, all reagents are purchased from Sigma-Aldrich (St Louis, Mo., U.S.A.).
Assays measuring Use-Dependent Block (UDB) of NaV1.2 are performed on an automated electrophysiology platform, QPatch 16X or QPatch HT (Sophion Bioscience, Copenhagen, Denmark), using the whole cell patch clamp technique to measure currents through the cell membrane. Series resistance compensation is set to 100% and series resistance and whole-cell compensation are performed automatically. Currents stored in the Sophion Bioscience Oracle database (Sophion Bioscience, Copenhagen, Denmark). Analysis is performed using QPatch Assay software and data are compiled in Excel 2010 (Microsoft, Seattle, Wash., U.S.A.).
The internal (pipette) solution consists of (in mM) 105 CsF, 10 NaF, 20 CsCl, 2 EGTA, 10 HEPES, 10 Dextrose with a pH of 7.35 and osmolarity of 300 mOsmol/kg. The external (bath) solution contains in (mM): 145 NaCl, 4 KCl, 1.8 CaCl2, 1 MgCl2, 10 dextrose, 10 HEPES, with a pH of 7.35 and osmolarity of 310 mOsmol/kg. Experiments are carried out at 23-25° C.
Compound stocks are routinely made by the Gilead Sample Bank in vials to 10 mM in dimethyl sulfoxide (DMSO). In some cases, when compounds are not soluble in DMSO, they are made in 100% ethanol. Stocks are sonicated as necessary. […]
Cells are allowed to stabilize for 10 min after establishment of the whole-cell configuration before current is measured. The test compound is applied 2 times at 60 second intervals. After the second compound addition, a 200 second wait period was imposed to allow for equilibration.
Leak currents are subtracted by using an online P/4 procedure and all currents are low-pass Bessel filtered at 5 kHz and digitized at […].
Use-dependent block of NaV1.2 peak current is measured during pulse number 20 of a voltage pulse train (0 mV, 20 ms, 20 pulses, 25 Hz) from a holding potential of −120 mV. Currents are normalized to the peak current recorded in response to the first pulse in each frequency train. The voltage protocol for UDB was performed in the absence and presence of compound and percentage inhibition was calculated with respect to the compound free condition. Results are presented as mean percentage inhibition and data analysis is performed using QPatch Assay Software 4.0, and Excel 2002 (Microsoft, Seattle, Wash., U.S.A.).

[1] = target: wild-type human cardiac sodium channel, hNaV 1.5 (Late INa) (Homo sapiens, UniProt Q14524); experiment: Late INa screening assay (whole cell patch clamp, QPatch, Tefluthrin-induced late current); assay type: cell-based; conditions: HEK293, % inhibition (percent block of late INa) at 1 uM; HEK293 hNaV1.5; 10 μM Tefluthrin; read-out: Nav1.5 Late INa 1 uM
Chain of wild-type human cardiac sodium channel, hNaV 1.5 (Late INa) (Q14524 whole entry): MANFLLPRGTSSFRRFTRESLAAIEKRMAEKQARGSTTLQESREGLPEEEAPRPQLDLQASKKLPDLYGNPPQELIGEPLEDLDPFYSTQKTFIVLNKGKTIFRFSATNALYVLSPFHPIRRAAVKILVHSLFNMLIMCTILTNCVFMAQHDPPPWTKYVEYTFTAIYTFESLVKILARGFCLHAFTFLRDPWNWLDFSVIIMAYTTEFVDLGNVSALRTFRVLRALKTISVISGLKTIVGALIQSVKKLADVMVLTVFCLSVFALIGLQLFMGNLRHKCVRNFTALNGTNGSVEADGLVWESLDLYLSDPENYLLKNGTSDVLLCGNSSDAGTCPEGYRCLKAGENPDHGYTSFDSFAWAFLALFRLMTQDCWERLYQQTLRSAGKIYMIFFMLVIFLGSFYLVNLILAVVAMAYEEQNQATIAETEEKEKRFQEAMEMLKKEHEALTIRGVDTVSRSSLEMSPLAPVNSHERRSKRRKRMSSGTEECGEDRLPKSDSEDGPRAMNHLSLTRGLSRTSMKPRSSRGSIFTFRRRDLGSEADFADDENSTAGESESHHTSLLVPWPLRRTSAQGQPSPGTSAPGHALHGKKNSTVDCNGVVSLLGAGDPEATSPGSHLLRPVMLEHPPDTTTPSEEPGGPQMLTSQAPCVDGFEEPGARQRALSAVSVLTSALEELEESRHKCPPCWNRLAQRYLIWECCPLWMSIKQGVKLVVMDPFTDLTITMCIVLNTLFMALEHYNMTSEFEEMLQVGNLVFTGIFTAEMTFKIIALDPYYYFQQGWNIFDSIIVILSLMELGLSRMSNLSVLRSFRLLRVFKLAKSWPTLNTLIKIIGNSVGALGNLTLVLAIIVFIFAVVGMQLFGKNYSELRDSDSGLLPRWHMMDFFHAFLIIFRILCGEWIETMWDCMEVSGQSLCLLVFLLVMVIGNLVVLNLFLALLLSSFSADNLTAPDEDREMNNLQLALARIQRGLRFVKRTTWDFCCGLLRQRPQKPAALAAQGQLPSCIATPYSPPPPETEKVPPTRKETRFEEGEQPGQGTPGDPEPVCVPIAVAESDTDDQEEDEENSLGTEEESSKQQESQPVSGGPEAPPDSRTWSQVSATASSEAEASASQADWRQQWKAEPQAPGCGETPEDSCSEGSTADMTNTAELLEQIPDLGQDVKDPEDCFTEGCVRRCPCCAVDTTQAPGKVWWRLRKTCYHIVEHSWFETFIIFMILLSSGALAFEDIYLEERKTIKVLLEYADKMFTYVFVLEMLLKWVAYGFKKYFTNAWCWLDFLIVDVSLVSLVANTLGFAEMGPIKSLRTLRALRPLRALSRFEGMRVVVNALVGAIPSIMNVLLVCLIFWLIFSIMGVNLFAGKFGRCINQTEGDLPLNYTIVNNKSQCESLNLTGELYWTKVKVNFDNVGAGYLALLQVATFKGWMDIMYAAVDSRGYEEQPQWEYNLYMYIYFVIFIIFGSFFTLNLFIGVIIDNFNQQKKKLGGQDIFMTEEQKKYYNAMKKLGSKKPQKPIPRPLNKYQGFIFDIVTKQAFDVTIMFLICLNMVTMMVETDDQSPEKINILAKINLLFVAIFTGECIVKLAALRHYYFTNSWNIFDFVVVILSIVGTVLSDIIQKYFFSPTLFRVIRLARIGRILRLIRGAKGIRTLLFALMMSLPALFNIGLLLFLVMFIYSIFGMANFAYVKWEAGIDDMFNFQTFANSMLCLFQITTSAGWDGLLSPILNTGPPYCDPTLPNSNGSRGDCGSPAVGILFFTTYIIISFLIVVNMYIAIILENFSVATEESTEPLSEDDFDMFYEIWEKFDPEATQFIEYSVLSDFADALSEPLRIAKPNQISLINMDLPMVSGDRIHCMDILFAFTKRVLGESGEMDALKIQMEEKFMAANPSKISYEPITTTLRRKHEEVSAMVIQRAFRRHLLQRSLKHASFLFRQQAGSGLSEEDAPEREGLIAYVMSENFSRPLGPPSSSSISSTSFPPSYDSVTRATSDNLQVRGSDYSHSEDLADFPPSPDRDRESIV
Procedure: The cardiac late sodium current (Late INa) and peak sodium current (Peak INa) assays are performed on an automated electrophysiology platform, QPatch 16X or QPatch HT (Sophion Bioscience, Copenhagen, Denmark) using the whole cell patch clamp technique to measure currents through the cell membrane. The assay uses an HEK293 (human embryonic kidney) cell line heterologously expressing the wild-type human cardiac sodium channel, hNaV 1.5, purchased from Millipore (Billerica, Mass.). No beta subunits were coexpressed with the Na channel alpha subunit. Cells are maintained with standard tissue culture procedures and stable channel expression is maintained with 400 μg/mL Geneticin in the culture medium. Experiments are carried out at 23-25° C.
For both the Late INa and Peak INa assays, series resistance compensation is set to 100% and series resistance and whole-cell compensation are performed automatically. Currents are digitized at 25 kHz and low-pass filtered at 5 kHz and stored in the Sophion Bioscience Oracle database (Sophion Bioscience, Copenhagen, Denmark). Analysis is performed using QPatch Assay software and data are compiled in Excel 2010 (Microsoft, Seattle, Wash., U.S.A.).
Compound stocks are routinely made by the Gilead Sample Bank in vials to 10 mM in dimethyl sulfoxide (DMSO). In some cases, when compounds are not soluble in DMSO, they are made in 100% ethanol. Stocks are sonicated as necessary. The extracellular solution for screening Late INa is composed of: 140 mM NaCl, 4 mM KCl, 1.8 mM CaCl2, 1 mM MgCl2, 10 mM HEPES and 10 mM Dextrose with pH adjusted to 7.35 using NaOH. The intracellular solution contains: 105 mM CsF, 20 mM CsCl, 10 NaF, 2 mM EGTA, 10 mM HEPES and 10 mM Dextrose with pH adjusted to 7.35 with CsOH. Compounds are diluted in extracellular solution using a MicroLab Nimbus (Hamilton Robotics, Reno, Nev.) to between 0.3 and 3 μM in glass vials and transferred to glass well plates before robotic addition to the cells. The 0 mM Na extracellular solution (0Na-ECF) used at the end of each experiment for the Late INa and Peak INa assays to measure baseline current contains: 140 Choline-Cl; 4 mM KCl, 1.8 mM CaCl2; 1 mM MgCl2; 10 mM HEPES and 10 mM Dextrose with pH was adjusted to 7.35 with CsOH.
For the Late INa assay, sodium channels are activated every 10 seconds (0.1 Hz) by depolarizing the cell membrane to −20 mV for 250 milliseconds (ms) from a holding potential of −120 mV.
Compounds were tested to determine their activity in blocking the late sodium current. Late INa was generated by adding 10 μM Tefluthrin (pyrethroid) to the extracellular solution. For the purposes of the screening, Late INa is defined as the mean current between 240 ms and 265 ms during the voltage step to −20 mV. After establishing the whole cell recording configuration, Late INa activator is added to each well 4 times over a 15 minute period so that the late component of the Na current reaches a stable value. Compounds were then added (typically at 0.3 or 1 μM), in the presence of the Late INa activator, with 3 additions over the course of 5 minutes. Measurements were made at the end of exposure to the third compound addition and values were normalized to the current level when all Na^+ was removed from the extracellular solution after two additions of 0Na-ECF.
Results are reported as percent block of late INa and results were analyzed by incorporating rundown correction for the Late INa.

For `O=C1Oc2ccc(-c3ccc(OC(F)(F)F)cc3)cc2CN1Cc1ncccn1` [Example 3, 3-(pyrimidin-2-ylmethyl)-6-(4-(trifluoromethoxy)phenyl)-3,4-dihydro-2H-benzo[e][1,3]oxazin-2-one], the inhibition at 1 µM (hNaV1.1 (SCN1A)) was 42.6%, the inhibition at 10 µM (hNaV1.1 (SCN1A)) was 91.6% and the inhibition at 1 µM [1] was 51.8%.

With `O=C1Oc2ccc(-c3ccc(C(F)(F)F)cc3)cc2CN1Cc1ncccn1` [Example 4, 3-(pyrimidin-2-ylmethyl)-6-(4-(trifluoromethyl)phenyl)-3,4-dihydro-2H-benzo[e][1,3]oxazin-2-one] the inhibition at 1 µM (hNaV1.1 (SCN1A)) was 49.9%, the inhibition at 10 µM (hNaV1.1 (SCN1A)) was 76.5% and the inhibition at 1 µM [1] was 53.9%.

In the case of `Cc1nccc(CN2Cc3cc(-c4ccc(OC(F)(F)F)cc4)ccc3OC2=O)n1` [Example 15, 3-((2-methylpyrimidin-4-yl)methyl)-6-(4-(trifluoromethoxy)phenyl)-3,4-dihydro-2H-benzo[e][1,3]oxazin-2-one], the inhibition at 1 µM [1] is reported as 30%.

`CC1c2cc(-c3ccc(C(F)(F)F)cc3)ccc2OC(=O)N1Cc1ncccn1` (stereo not drawn) [Example 49, 4-methyl-3-(pyrimidin-2-ylmethyl)-6-(4-(trifluoromethyl)phenyl)-3,4-dihydro-2H-benzo[e][1,3]oxazin-2-one] was tested, and the inhibition at 1 µM (hNaV1.1 (SCN1A)) was 21.5%, the inhibition at 10 µM (hNaV1.1 (SCN1A)) was 82.4% and the inhibition at 1 µM [1] was 41.5%.

`CC1c2cc(-c3cccc(Oc4ccccc4)c3)ccc2OC(=O)N1Cc1ncccn1` (stereo not drawn) [Example 51, 4-methyl-6-(3-phenoxyphenyl)-3-(pyrimidin-2-ylmethyl)-3,4-dihydro-2H-benzo[e][1,3]oxazin-2-one] was tested, and the inhibition at 1 µM [1] was 41.6%.

`O=C1Oc2cc3c(cc2CN1Cc1ncccn1)-c1ccc(OC(F)(F)F)cc1C3` [Example 60, 3-(pyrimidin-2-ylmethyl)-8-(trifluoromethoxy)-3,4-dihydrofluoreno[3,2-e][1,3]oxazin-2(10H)-one] showed an inhibition at 1 µM [1] of 11.2%.

— patent publication US9416128B2, “Fused heterocyclic compounds as ion channel modulators” (Gilead Sciences, Inc., priority 2013, dated 2016)
